What was measured:
Type in all cases: biochemical
[1] = target: T1, MAPKAPK2 (Homo sapiens, UniProt P49137); experiment: Z'-Lyte FRET kinase assay (Invitrogen), MAPKAPK2; conditions: read-out: IC50, activity toward kinase MAPKAPK2
T1 construct: purchased Invitrogen (assay run by Invitrogen)
Excerpt: The effect of potential modulators of kinase activity can be measured in a variety of different assays known in the art. For example, direct radiometric, indirect FRET or AlphaScreen assays may be used to assess the level of phosphorylation of a substrate in the presence of test compounds in order to determine the inhibitory affect of the compound on the kinase. Invitrogen (Carlsbad, Calif.) uses a FRET based assay for Btk, EGFR, EphB2, Flt3, lrak4, Kdr, MAP2K1, MAPKAPK2, PDGFRB, PKC theta, Stk6 and Yes. For these assays, compounds of the invention were screened by Invitrogen using Z′-Lyte™ kinase assay.
Briefly, the Invitrogen kinase assay involves use of a specific peptide substrate optimized for each kinase, containing a fluorophore at each end that make up the FRET pair. The peptide sensitivity to proteolytic cleavage depends on phosphorylation of the peptide. Non-phosphorylated peptide is cleaved by a protease while peptide phosphorylated by the kinase is not cleaved. Cleavage of the peptide disrupts the FRET between the donor (coumarin) and acceptor (fluorescein) fluorophores, resulting in an increase in the ratio of donor emission to acceptor emission. The emission ratio of coumarin to fluorescein is used to assess the reaction progress. The extent of phosphorylation is determined from the emission ratio, which is low when the kinase is active (phosphorylated peptide is not cleaved, FRET pair connected) or higher for inhibited kinase (non-phosphorylated peptide is cleaved, FRET pair separated). Thus, the assay involves a kinase reaction in the presence of varying concentrations of a given compound, a development reaction with site specific protease, and detection of the fluorescent emission ratio of coumarin and fluorscein. […] Reaction conditions for each kinase are determined to provide optimal reaction times, incubation temperature, kinase and ATP concentrations. Test samples are made up in 1× kinase buffer (50 mM HEPES pH 7.5, 50 mM MgCl2, 5 mM EGTA, 0.05% BRIJ-35) and compound at desired concentration prepared in DMSO such that the final DMSO is 1%. […] Typically, assay plates are prepared to 10 μl final volume per sample, adding 2.5 μl of compound at 4× the desired concentration in 4% DMSO (serial dilution of compound provides concentration curve), 5 μl of the desired kinase mixed with Z′-LYTE™ peptide substrate (2× in 2× kinase buffer, final peptide at 2 μM), and 2.5 μl of 4×ATP solution. All kinase except for MAP2K1 were at 10 μM ATP in the kinase reaction, while MAP2K1 was at 100 μM. Samples are mixed and the kinase reaction is incubated 1 hour at room temperature, after which 5 μl of development solution is added and mixed. After incubation for another 1 hour at room temperature, 5 μl of stop reagent is added to each sample and mixed. The fluorescence signals are measured to determine the emission ratio.

[2] = target: T2, Kdr (Homo sapiens, UniProt P35968); experiment: Z'-Lyte FRET kinase assay (Invitrogen), Kdr; conditions: read-out: IC50, activity toward kinase Kdr
T2 construct: purchased Invitrogen (assay run by Invitrogen)

[3] = target: T3, Stk6 (Homo sapiens, UniProt O14965); experiment: Z'-Lyte FRET kinase assay (Invitrogen), Stk6; conditions: read-out: IC50, activity toward kinase Stk6
T3 construct: purchased Invitrogen (Carlsbad, Calif.), screening service
T3 sequence (O14965 1-403): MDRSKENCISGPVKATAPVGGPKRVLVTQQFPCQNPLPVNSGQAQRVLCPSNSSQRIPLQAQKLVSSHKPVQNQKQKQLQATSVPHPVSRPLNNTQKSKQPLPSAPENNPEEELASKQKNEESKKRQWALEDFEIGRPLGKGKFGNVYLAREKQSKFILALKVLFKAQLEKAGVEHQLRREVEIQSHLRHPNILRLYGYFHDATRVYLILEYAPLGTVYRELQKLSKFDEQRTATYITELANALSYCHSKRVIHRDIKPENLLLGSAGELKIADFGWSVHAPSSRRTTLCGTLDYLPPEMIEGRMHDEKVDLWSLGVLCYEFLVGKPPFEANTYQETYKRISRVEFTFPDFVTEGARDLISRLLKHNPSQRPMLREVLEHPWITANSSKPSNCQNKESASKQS

[4] = target: T4, IKK beta (Homo sapiens, UniProt O14920); experiment: AlphaScreen kinase assay, IKK beta; conditions: read-out: IC50, activity toward kinase IKK beta
T4 sequence (O14920 1-756): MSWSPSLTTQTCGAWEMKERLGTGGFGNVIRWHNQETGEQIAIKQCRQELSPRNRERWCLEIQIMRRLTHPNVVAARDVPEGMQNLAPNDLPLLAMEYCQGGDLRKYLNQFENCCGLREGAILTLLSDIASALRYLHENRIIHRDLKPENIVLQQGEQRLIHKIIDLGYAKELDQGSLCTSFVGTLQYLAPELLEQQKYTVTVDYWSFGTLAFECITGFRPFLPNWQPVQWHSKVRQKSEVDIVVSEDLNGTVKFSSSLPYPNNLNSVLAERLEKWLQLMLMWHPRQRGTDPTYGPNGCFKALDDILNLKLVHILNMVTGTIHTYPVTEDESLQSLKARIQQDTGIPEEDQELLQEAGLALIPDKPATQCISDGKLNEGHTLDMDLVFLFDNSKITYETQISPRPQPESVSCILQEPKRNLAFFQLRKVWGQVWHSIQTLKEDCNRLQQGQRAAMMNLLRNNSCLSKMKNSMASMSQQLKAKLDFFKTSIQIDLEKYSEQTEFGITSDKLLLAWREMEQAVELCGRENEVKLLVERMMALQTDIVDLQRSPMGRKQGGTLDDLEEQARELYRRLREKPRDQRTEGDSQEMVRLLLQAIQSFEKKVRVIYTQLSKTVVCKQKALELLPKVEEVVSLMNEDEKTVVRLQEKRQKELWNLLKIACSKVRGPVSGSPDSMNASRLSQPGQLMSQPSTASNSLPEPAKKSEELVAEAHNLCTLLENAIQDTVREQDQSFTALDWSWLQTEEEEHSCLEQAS
Method: (§3) AlphaScreen assays were done using compounds dissolved in DMSO to a concentration of 20 mM. The compounds were diluted accordingly to the desired final concentrations in each sample well, using 1:3 serial dilution for a total of 8 concentration points. Plates were prepared such that each kinase reaction is 20 μl in 1× kinase buffer, 5% DMSO and 10 μM ATP. After incubation of the kinase reaction for 1 hour at room temperature, 5 μl of donor beads in stop buffer (50 mM EDTA in 1× kinase buffer) was added, the sample was mixed and incubated for 20 minutes at room temperature before adding 5 μl of acceptor beads in stop buffer. The samples were incubated for 60 minutes at room temperature and the signal per well was read on AlphaQuest reader.

[5] = target: T5, Kit (Homo sapiens, UniProt P10721); experiment: AlphaScreen kinase assay, Kit; conditions: read-out: IC50, activity toward kinase Kit
T5 construct: P1332.N6 BI PTP KIT M552-K948-X COD; His6 (N); made in house; host or cells: E. coli (PTP1B co-expressed)

[6] = target: T6, Pyk2 (Homo sapiens, UniProt Q14289); experiment: AlphaScreen kinase assay, Pyk2; conditions: read-out: IC50, activity toward kinase Pyk2
T6 construct: purchased Upstate Biotechnology

[7] = target: Gsk3β (Homo sapiens, UniProt P49841); experiment: AlphaScreen kinase assay, Gsk3β; conditions: read-out: IC50, activity toward kinase Gsk3β
Procedure, shortened: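 Emission from acceptor beads reports phosphorylated biotin-peptide bridging antibody-coated acceptor and streptavidin donor beads; loss of signal reflects kinase inhibition. Eight-point, threefold dilution series prepared from 20 mM DMSO stocks.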

[8] = target: T7, FGFR1 (Homo sapiens, UniProt P11362, C488A/C584S); experiment: AlphaScreen kinase assay, FGFR1; conditions: read-out: IC50, activity toward kinase FGFR
T7 construct: P1351.pET N6 BI-PTP FGFR A458-E765-X C488A, C584S; made in house; host or cells: E. coli (PTP1B co-expressed)

[9] = target: Frk (Homo sapiens, UniProt P42685); experiment: AlphaScreen kinase assay, Frk; conditions: read-out: IC50, activity toward kinase Frk
Excerpt: (§1) AlphaScreen assay was used to screen additional kinases. The assay is similarly dependent on the phosphorylation of a peptide substrate. In this assay, an antibody that recognizes phosphorylated substrate is bound to an acceptor bead. The peptide substrate is attached to biotin, which binds to a donor head that contains streptavidin. Thus phosphorylated substrate is bound by antibody and streptavidin, bringing the donor and acceptor heads into close proximity when kinase is not inhibited. The donor produces singlet oxygen which results in emission from the acceptor when they are in close proximity. Conversely, when kinase is inhibited, the donor and acceptor beads are not associated and the emission from the acceptor is reduced.
(§2) AlphaScreen assays were done using compounds dissolved in DMSO to a concentration of 20 mM. The compounds were diluted accordingly to the desired final concentrations in each sample well, using 1:3 serial dilution for a total of 8 concentration points.

[10] = target: T8, Fak (Homo sapiens, UniProt Q05397); experiment: AlphaScreen kinase assay, Fak; conditions: read-out: IC50, activity toward kinase Fak
T8 construct: P1358.pFastBacHtb FAK S411-Q686-X; His6 with pFastBacHTb leader (TEV site) (N); made in house; host or cells: Sf9 (baculovirus)
Method: as §3

[11] = target: Brk (Homo sapiens, UniProt Q13882); experiment: AlphaScreen kinase assay, Brk; conditions: read-out: IC50, activity toward kinase Brk
Excerpt: as §1, §2

[12] = target: Hck (Homo sapiens, UniProt P08631); experiment: AlphaScreen kinase assay, Hck; conditions: read-out: IC50, activity toward kinase Hck
Excerpt: as §1, §2

[13] = target: MAP4K4 (Homo sapiens, UniProt O95819); experiment: AlphaScreen kinase assay, MAP4K4; conditions: read-out: IC50, activity toward kinase MAP4K4
[14] = target: Csk (Homo sapiens, UniProt P41240); experiment: AlphaScreen kinase assay, Csk; conditions: read-out: IC50, activity toward kinase Csk
Excerpt: as §1, §2

[15] = target: PDGFRA (Homo sapiens, UniProt P16234); experiment: AlphaScreen kinase assay, PDGFRA; conditions: read-out: IC50, activity toward kinase PDGFRA
Excerpt: as §1, §2

[16] = target: T9, Src (Homo sapiens, UniProt P12931); experiment: AlphaScreen kinase assay, Src; conditions: read-out: IC50, activity toward kinase Src
T9 construct: P1144. pET-N6 BI-PTP SRC V86-L536-X; made in house

Measured: IC50

T1 sequence (P49137 whole entry): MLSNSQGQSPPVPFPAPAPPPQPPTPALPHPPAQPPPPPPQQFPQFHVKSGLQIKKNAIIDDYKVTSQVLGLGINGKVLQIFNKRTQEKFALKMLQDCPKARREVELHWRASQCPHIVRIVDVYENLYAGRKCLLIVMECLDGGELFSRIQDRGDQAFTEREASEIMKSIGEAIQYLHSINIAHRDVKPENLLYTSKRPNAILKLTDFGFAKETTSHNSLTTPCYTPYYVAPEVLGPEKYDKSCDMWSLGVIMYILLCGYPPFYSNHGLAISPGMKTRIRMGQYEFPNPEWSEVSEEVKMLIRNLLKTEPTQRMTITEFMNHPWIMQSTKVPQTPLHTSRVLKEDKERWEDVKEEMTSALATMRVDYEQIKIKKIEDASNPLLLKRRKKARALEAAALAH
T2 sequence (P35968 20-1356): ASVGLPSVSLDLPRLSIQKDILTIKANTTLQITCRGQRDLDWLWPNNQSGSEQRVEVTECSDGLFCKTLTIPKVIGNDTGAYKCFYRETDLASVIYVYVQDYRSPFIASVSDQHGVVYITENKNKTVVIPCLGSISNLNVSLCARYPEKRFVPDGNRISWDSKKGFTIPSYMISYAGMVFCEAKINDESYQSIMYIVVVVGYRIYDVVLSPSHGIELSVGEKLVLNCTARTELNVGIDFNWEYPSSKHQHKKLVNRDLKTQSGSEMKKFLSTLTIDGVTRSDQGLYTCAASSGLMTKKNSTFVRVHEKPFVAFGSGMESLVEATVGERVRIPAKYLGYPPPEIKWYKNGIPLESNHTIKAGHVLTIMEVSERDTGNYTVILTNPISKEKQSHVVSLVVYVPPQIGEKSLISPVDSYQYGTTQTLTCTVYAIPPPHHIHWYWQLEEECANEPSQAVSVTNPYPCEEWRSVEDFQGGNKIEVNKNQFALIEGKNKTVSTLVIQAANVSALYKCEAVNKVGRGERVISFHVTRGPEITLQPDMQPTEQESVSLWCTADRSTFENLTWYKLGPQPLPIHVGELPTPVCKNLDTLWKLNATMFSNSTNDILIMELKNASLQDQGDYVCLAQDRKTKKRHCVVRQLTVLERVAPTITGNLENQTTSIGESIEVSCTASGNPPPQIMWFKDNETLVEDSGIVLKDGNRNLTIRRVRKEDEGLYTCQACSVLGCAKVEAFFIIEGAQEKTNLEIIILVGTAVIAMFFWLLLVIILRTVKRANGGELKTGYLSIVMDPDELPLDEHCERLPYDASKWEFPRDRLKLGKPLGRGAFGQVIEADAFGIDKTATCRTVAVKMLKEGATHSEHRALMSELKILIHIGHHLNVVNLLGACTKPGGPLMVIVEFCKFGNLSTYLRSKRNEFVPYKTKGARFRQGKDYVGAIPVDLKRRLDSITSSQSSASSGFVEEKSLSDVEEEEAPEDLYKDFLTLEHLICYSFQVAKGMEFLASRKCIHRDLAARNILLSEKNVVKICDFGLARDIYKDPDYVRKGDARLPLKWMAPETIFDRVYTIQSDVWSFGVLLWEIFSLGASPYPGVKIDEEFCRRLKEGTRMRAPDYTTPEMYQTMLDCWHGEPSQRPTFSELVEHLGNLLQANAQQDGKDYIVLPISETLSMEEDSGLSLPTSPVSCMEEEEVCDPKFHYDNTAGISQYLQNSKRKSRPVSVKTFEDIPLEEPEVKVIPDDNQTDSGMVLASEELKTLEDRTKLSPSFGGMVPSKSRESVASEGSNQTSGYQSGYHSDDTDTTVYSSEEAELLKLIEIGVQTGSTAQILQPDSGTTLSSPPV
Chain of Gsk3β (P49841 whole entry): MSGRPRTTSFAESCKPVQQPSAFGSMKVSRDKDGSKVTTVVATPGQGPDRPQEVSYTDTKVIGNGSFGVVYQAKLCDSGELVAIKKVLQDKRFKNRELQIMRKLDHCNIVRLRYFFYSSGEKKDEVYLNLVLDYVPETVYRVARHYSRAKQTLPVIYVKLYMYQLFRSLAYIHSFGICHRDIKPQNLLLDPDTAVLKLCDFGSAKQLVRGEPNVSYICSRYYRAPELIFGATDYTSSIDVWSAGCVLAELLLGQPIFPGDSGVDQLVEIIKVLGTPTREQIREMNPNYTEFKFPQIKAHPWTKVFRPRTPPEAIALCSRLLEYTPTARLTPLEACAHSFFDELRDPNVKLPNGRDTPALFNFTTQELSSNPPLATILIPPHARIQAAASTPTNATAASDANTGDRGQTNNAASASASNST
T5 sequence (P10721 with tags, fused parts or gaps): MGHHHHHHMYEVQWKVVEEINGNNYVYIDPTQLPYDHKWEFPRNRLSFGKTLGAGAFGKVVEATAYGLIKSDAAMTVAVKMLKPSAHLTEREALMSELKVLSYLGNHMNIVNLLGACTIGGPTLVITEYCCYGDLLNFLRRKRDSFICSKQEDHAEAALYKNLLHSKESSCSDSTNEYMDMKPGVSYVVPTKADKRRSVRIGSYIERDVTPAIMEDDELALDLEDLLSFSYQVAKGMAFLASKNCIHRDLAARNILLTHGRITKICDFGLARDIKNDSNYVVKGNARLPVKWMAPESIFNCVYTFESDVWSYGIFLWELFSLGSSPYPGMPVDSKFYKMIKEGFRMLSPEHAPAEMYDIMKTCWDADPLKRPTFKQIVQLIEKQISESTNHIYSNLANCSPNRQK
T7 sequence (P11362 458-765 C488A/C584S): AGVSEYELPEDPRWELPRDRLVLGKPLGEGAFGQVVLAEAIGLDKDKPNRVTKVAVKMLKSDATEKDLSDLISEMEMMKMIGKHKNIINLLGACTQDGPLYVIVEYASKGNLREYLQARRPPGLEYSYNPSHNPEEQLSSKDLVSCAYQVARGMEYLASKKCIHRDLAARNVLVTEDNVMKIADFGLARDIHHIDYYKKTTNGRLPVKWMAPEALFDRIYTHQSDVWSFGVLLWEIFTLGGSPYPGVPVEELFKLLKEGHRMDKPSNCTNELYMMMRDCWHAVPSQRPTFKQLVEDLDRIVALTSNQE
Chain of Csk (P41240 whole entry): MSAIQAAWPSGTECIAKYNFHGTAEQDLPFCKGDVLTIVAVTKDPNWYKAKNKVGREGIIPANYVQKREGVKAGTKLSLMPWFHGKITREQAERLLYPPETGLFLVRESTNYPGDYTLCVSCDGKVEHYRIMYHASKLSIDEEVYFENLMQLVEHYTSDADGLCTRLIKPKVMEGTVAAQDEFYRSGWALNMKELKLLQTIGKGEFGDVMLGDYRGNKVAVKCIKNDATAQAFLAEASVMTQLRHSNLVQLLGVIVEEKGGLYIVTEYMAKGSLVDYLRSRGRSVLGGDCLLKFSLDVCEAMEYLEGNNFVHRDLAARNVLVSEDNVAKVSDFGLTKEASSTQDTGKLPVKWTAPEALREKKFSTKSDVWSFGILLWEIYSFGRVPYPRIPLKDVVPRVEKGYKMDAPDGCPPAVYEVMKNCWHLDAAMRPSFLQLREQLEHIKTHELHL
Chain of Hck (P08631 whole entry): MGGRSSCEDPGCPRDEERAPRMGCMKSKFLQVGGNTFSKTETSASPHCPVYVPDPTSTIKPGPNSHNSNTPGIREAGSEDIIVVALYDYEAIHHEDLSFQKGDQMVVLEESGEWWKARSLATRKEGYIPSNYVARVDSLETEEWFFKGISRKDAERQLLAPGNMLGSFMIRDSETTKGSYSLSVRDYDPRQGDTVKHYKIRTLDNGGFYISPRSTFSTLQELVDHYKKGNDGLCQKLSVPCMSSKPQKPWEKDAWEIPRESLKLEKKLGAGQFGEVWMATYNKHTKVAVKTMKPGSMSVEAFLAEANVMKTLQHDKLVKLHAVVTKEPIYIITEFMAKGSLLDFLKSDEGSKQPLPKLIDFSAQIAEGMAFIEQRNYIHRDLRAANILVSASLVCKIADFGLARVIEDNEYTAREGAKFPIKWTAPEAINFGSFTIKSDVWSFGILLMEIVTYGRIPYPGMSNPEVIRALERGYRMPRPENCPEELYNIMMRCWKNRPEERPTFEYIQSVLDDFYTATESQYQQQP
T9 sequence (P12931 with tags, fused parts or gaps): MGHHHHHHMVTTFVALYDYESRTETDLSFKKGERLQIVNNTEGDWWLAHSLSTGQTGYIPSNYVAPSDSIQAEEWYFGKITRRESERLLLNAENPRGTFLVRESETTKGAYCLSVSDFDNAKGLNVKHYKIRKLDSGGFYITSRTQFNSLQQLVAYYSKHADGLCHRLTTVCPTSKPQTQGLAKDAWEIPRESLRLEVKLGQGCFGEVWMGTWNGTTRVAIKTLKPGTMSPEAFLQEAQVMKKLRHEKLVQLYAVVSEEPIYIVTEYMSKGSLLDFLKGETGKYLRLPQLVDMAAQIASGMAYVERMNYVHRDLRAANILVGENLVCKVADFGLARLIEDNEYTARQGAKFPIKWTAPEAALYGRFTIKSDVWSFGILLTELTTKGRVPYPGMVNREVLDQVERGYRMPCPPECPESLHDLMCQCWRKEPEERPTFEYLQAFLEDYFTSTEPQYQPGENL
T8 sequence (Q05397 411-686): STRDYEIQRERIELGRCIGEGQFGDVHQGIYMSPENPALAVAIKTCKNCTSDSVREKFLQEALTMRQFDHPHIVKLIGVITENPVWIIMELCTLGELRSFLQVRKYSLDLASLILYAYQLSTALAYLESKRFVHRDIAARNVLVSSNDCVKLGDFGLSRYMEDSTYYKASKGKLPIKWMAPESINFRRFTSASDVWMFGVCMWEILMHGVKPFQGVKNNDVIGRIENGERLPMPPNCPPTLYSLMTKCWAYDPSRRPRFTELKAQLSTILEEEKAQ

Nc1ccc(Sc2c[nH]c3nccc(-c4cccc(CO)c4)c23)cc1 [Compound P-0077]
≤ 10 µM: [1] | [2] | [3]

O=C(O)c1ccc(Sc2c[nH]c3ncccc23)nc1 [Compound P-0086]
≤ 10 µM: [4] | [5] | [1] | [2] | [6] | [3] | [7]

Cc1cccc(-c2ccnc3[nH]cc(Sc4cccs4)c23)c1 [Compound P-0104]
≤ 10 µM: [1] | [3] | [7]

FC(F)(F)c1cccc(-c2ccnc3[nH]cc(Sc4ccncc4)c23)c1 [Compound P-0226]
≤ 10 µM: [1] | [2] | [7]

CCCS(=O)(=O)Nc1ccc(F)c(C(=O)c2c[nH]c3ncc(Cl)cc23)c1F [Compound P-0933, Propane-1-sulfonic acid [3-(5-chloro-1H-pyrrolo[2,3-b]pyridine-3-carbonyl)-2,4-difluoro-phenyl]-amide]
not listed: [1] | [2] | [4] | [6] | [7]
≤ 10 µM: all other assays above

Reference: patent US8415469B2, “Compounds and methods for kinase modulation, and indications therefor” (Plexxikon Inc., priority 2005, dated 2013)
